Test system: KRAS PDC multicell spheroid viability
Assay: Anticancer human tumor 825966-067-R-J1-PDC patient-derived colon carcinoma cell line growth inhibition [KRAS2]
Details: for IC50: curve of first compound; for viability, T/C: stronger effect = lower value
Procedure, shortened: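 KRAS-mutant tumor cells were grown as spheroids with HUVEC endothelial cells and human MSCs as stroma. Targeted agents were tested alone and with KRAS pathway inhibitors. Doses started at or near clinical Cmax, or 10 microM, descending half-log.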

[1] = second compound 0.1 µM, first compound 0.0316 µM
[2] = second compound 0.1 µM, first compound 0.1 µM
[3] = second compound 0.316 µM, first compound 0.0316 µM
[4] = second compound 0.316 µM, first compound 0.1 µM
[5] = second compound 1 µM, first compound 0.0316 µM
[6] = second compound 1 µM, first compound 0.1 µM
[7] = second compound 3.16 µM, first compound 0.0316 µM
[8] = second compound 3.16 µM, first compound 0.1 µM
[9] = second compound 0.1 µM, first compound 0.316 µM
[10] = second compound 0.1 µM, first compound 1 µM
[11] = second compound 0.1 µM, first compound 3.16 µM
[12] = second compound 0.1 µM, first compound 10 µM
[13] = second compound 0.316 µM, first compound 0.316 µM
[14] = second compound 0.316 µM, first compound 1 µM
[15] = second compound 0.316 µM, first compound 3.16 µM
[16] = second compound 0.316 µM, first compound 10 µM
[17] = second compound 1 µM, first compound 0.316 µM
[18] = second compound 1 µM, first compound 1 µM
[19] = second compound 1 µM, first compound 3.16 µM
[20] = second compound 1 µM, first compound 10 µM
[21] = second compound 3.16 µM, first compound 0.316 µM
[22] = second compound 3.16 µM, first compound 1 µM
[23] = second compound 3.16 µM, first compound 3.16 µM
[24] = second compound 3.16 µM, first compound 10 µM
[25] = second compound 10 µM, first compound 0.0316 µM
[26] = second compound 10 µM, first compound 0.1 µM
[27] = second compound 10 µM, first compound 0.316 µM
[28] = second compound 10 µM, first compound 1 µM
[29] = second compound 10 µM, first compound 3.16 µM
[30] = second compound 10 µM, first compound 10 µM
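Further: spheroids exposed to compounds for 7 days.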
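Wherever viability, T/C is given: 100% = DMSO vehicle control viability.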

**Q.** Which results are given for `Cn1ncnc1[C@H]1c2n[nH]c(=O)c3cc(F)cc(c23)N[C@@H]1c1ccc(F)cc1` + C=CC(=O)N1CCN(c2nc(OCC3CCCN3C)nc3c2CCN(c2cccc4cccc(C)c24)C3)CC1CC#N?
**A.** IC50 (second compound 0.0316 µM): > 100 nM; IC50 (second compound 0.1 µM): > 100 nM; IC50 (second compound 0.316 µM): > 100 nM; IC50 (second compound 1 µM): > 100 nM; IC50 (second compound 3.16 µM): > 100 nM; viability, T/C (second compound 0.0316 µM, first compound 0.000316 µM): 108%; viability, T/C (second compound 0.0316 µM, first compound 0.001 µM): 108%; viability, T/C (second compound 0.0316 µM, first compound 0.00316 µM): 91.5%; viability, T/C (second compound 0.0316 µM, first compound 0.01 µM): 78%; viability, T/C (second compound 0.0316 µM, first compound 0.0316 µM): 85.2%; viability, T/C (second compound 0.0316 µM, first compound 0.1 µM): 82.5%; viability, T/C (second compound 0.1 µM, first compound 0.000316 µM): 86.3%; viability, T/C (second compound 0.1 µM, first compound 0.001 µM): 106%; viability, T/C (second compound 0.1 µM, first compound 0.00316 µM): 119%; viability, T/C (second compound 0.1 µM, first compound 0.01 µM): 80%; viability, T/C [1]: 81.5%; viability, T/C [2]: 77%; viability, T/C (second compound 0.316 µM, first compound 0.000316 µM): 120%; viability, T/C (second compound 0.316 µM, first compound 0.001 µM): 103%; viability, T/C (second compound 0.316 µM, first compound 0.00316 µM): 133%; viability, T/C (second compound 0.316 µM, first compound 0.01 µM): 88.1%; viability, T/C [3]: 91.4%; viability, T/C [4]: 82.5%; viability, T/C (second compound 1 µM, first compound 0.000316 µM): 127%; viability, T/C (second compound 1 µM, first compound 0.001 µM): 103%; viability, T/C (second compound 1 µM, first compound 0.00316 µM): 98.6%; viability, T/C (second compound 1 µM, first compound 0.01 µM): 91.3%; viability, T/C [5]: 112%; viability, T/C [6]: 98.9%; viability, T/C (second compound 3.16 µM, first compound 0.000316 µM): 86.5%; viability, T/C (second compound 3.16 µM, first compound 0.001 µM): 123%; viability, T/C (second compound 3.16 µM, first compound 0.00316 µM): 112%; viability, T/C (second compound 3.16 µM, first compound 0.01 µM): 120%; viability, T/C [7]: 84.6%; viability, T/C [8]: 102%

**Q.** With `CCNC(=O)CC1N=C(c2ccc(Cl)cc2)c2cc(OC)ccc2-n2c(C)nnc21` (stereo not given) + COc1cc2nc(C)nc(NC(C)c3cc(N)cc(C(F)(F)F)c3)c2cc1OC1CCOC1 as the compound, how does the IC50 (second compound 0.1 µM) read?
**A.** > 10000 nM

**Q.** And the IC50 (second compound 0.316 µM)?
**A.** > 10000 nM

**Q.** And the IC50 (second compound 1 µM)?
**A.** > 10000 nM

**Q.** And the IC50 (second compound 3.16 µM)?
**A.** 2460 nM

**Q.** And the IC50 (second compound 10 µM)?
**A.** 55.6 nM

**Q.** And the viability, T/C [1]?
**A.** 97.2%

**Q.** And the viability, T/C [2]?
**A.** 119%

**Q.** What about the viability, T/C [9] of the same compound?
**A.** 104%

**Q.** And the viability, T/C [10]?
**A.** 80.3%

**Q.** And the viability, T/C [11]?
**A.** 73.4%

**Q.** And the viability, T/C [12]?
**A.** 69.1%

**Q.** And the viability, T/C [3]?
**A.** 97.6%

**Q.** And the viability, T/C [4]?
**A.** 111%

**Q.** What about the viability, T/C [13] of the same compound?
**A.** 98.2%

**Q.** And the viability, T/C [14]?
**A.** 75.2%

**Q.** And the viability, T/C [15]?
**A.** 59.9%

**Q.** What about the viability, T/C [16] of the same compound?
**A.** 69.1%

**Q.** What about the viability, T/C [5] of the same compound?
**A.** 101%

**Q.** What about the viability, T/C [6] of the same compound?
**A.** 109%

**Q.** And the viability, T/C [17]?
**A.** 118%

**Q.** What about the viability, T/C [18] of the same compound?
**A.** 77.1%

**Q.** What about the viability, T/C [19] of the same compound?
**A.** 98.8%

**Q.** And the viability, T/C [20]?
**A.** 70.8%

**Q.** And the viability, T/C [7]?
**A.** 131%

**Q.** And the viability, T/C [8]?
**A.** 97.6%

**Q.** And the viability, T/C [21]?
**A.** 114%

**Q.** And the viability, T/C [22]?
**A.** 71.7%

**Q.** What about the viability, T/C [23] of the same compound?
**A.** 41%

**Q.** What about the viability, T/C [24] of the same compound?
**A.** 47%

**Q.** What about the viability, T/C [25] of the same compound?
**A.** 77.8%

**Q.** What about the viability, T/C [26] of the same compound?
**A.** 19%

**Q.** And the viability, T/C [27]?
**A.** 17.4%

**Q.** What about the viability, T/C [28] of the same compound?
**A.** 8.42%

**Q.** And the viability, T/C [29]?
**A.** 13.1%

**Q.** And the viability, T/C [30]?
**A.** 1.45%

**Q.** Which results are given for `COc1cc2nccc(Oc3ccc(NC(=O)C4(C(=O)Nc5ccc(F)cc5)CC4)cc3)c2cc1OC` + CC1OCC2(CCN(c3cnc(Sc4ccnc(N)c4Cl)c(N)n3)CC2)C1N?
**A.** IC50 (second compound 0.1 µM): 1610 nM; IC50 (second compound 0.316 µM): 1710 nM; IC50 (second compound 1 µM): 1690 nM; IC50 (second compound 3.16 µM): 1610 nM; IC50 (second compound 10 µM): < 31.6 nM; viability, T/C [1]: 89.8%; viability, T/C [2]: 105%; viability, T/C [9]: 94.7%; viability, T/C [10]: 79.9%; viability, T/C [11]: 7.16%; viability, T/C [12]: 8.74%; viability, T/C [3]: 97%; viability, T/C [4]: 102%; viability, T/C [13]: 85.8%; viability, T/C [14]: 87.1%; viability, T/C [15]: 5.92%; viability, T/C [16]: 10%; viability, T/C [5]: 109%; viability, T/C [6]: 98.1%; viability, T/C [17]: 78.6%; viability, T/C [18]: 85.7%; viability, T/C [19]: 7.28%; viability, T/C [20]: 5.65%; viability, T/C [7]: 83.5%; viability, T/C [8]: 87%; viability, T/C [21]: 90.3%; viability, T/C [22]: 81.6%; viability, T/C [23]: 4.94%; viability, T/C [24]: 4.14%; viability, T/C [25]: 45.5%; viability, T/C [26]: 48.5%; viability, T/C [27]: 43.4%; viability, T/C [28]: 23.1%; viability, T/C [29]: 1.1%; viability, T/C [30]: 0.8%
